Assay results: ChEMBL document CHEMBL1158147, “Ultraviolet-mediated cytotoxic activity of phenylheptatriyne from Bidens pilosa L” (J Nat Prod, 1979)
The source made the active and inactive calls.

How the values were obtained:
Bacillus subtilis [1] = test: Phototoxicity against Bacillus subtilis at 10 ug/disk in presence of long wave UV light; format: functional, organism-based
Bacillus subtilis [2] = test: Phototoxicity against Bacillus subtilis at 10 ug/disk in dark; format: functional, organism-based
Kocuria rosea [3] = test: Phototoxicity against Micrococcus roseus UBC 289 at 10 ug/disk in presence of long wave UV light; format: functional, organism-based
Kocuria rosea [4] = test: Phototoxicity against Micrococcus roseus UBC 289 at 10 ug/disk in presence of cool-white fluorescent light; format: functional, organism-based
Kocuria rosea [5] = test: Phototoxicity against Micrococcus roseus UBC 289 at 10 ug/disk in dark; format: functional, organism-based
[6] = system: Staphylococcus epidermidis; test: Phototoxicity against Staphylococcus albus at 10 ug/disk in presence of long wave UV light; format: functional, organism-based
[7] = system: Staphylococcus epidermidis; test: Phototoxicity against Staphylococcus albus at 10 ug/disk in presence of cool-white fluorescent light; format: functional, organism-based
[8] = system: Staphylococcus epidermidis; test: Phototoxicity against Staphylococcus albus at 10 ug/disk in dark; format: functional, organism-based
Enterococcus faecalis [9] = test: Phototoxicity against Streptococcus faecalis at 10 ug/disk in presence of long wave UV light; format: functional, organism-based
Enterococcus faecalis [10] = test: Phototoxicity against Streptococcus faecalis at 10 ug/disk in presence of cool-white fluorescent light; format: functional, organism-based
Enterococcus faecalis [11] = test: Phototoxicity against Streptococcus faecalis at 10 ug/disk in dark; format: functional, organism-based
Escherichia coli [12] = test: Phototoxicity against Escherichia coli at 10 ug/disk in presence of long wave UV light; format: functional, organism-based
Escherichia coli [13] = test: Phototoxicity against Escherichia coli at 10 ug/disk in presence of cool-white fluorescent light; format: functional, organism-based
Escherichia coli [14] = test: Phototoxicity against Escherichia coli at 10 ug/disk in dark; format: functional, organism-based
Proteus mirabilis [15] = test: Phototoxicity against Proteus mirabilis UBC 5 at 10 ug/disk in presence of long wave UV light; format: functional, organism-based
Proteus mirabilis [16] = test: Phototoxicity against Proteus mirabilis UBC 5 at 10 ug/disk in presence of cool-white fluorescent light; format: functional, organism-based
Proteus mirabilis [17] = test: Phototoxicity against Proteus mirabilis UBC 5 at 10 ug/disk in dark; format: functional, organism-based
Pseudomonas fluorescens [18] = test: Phototoxicity against Pseudomonas fluorescens at 10 ug/disk in presence of long wave UV light; format: functional, organism-based
Pseudomonas fluorescens [19] = test: Phototoxicity against Pseudomonas fluorescens at 10 ug/disk in presence of cool-white fluorescent light; format: functional, organism-based
Pseudomonas fluorescens [20] = test: Phototoxicity against Pseudomonas fluorescens at 10 ug/disk in dark; format: functional, organism-based
Candida albicans [21] = test: Phototoxicity against Candida albicans at 10 ug/disk in presence of long wave UV light; format: functional, organism-based
Candida albicans [22] = test: Phototoxicity against Candida albicans at 10 ug/disk in presence of cool-white fluorescent light; format: functional, organism-based
Candida albicans [23] = test: Phototoxicity against Candida albicans at 10 ug/disk in dark; format: functional, organism-based
Rhodotorula mucilaginosa [24] = test: Phototoxicity against Rhodotorula rubra Y96 at 10 ug/disk in presence of long wave UV light; format: functional, organism-based
Rhodotorula mucilaginosa [25] = test: Phototoxicity against Rhodotorula rubra Y96 at 10 ug/disk in dark; format: functional, organism-based
Saccharomyces cerevisiae [26] = test: Phototoxicity against Saccharomyces cerevisiae at 10 ug/disk in presence of long wave UV light; format: functional, organism-based
Saccharomyces cerevisiae [27] = test: Phototoxicity against Saccharomyces cerevisiae at 10 ug/disk in presence of cool-white fluorescent light; format: functional, organism-based
Saccharomyces cerevisiae [28] = test: Phototoxicity against Saccharomyces cerevisiae at 10 ug/disk in dark; format: functional, organism-based
Sporobolomyces [29] = test: Phototoxicity against Sporobolomyces sp. Y138 at 10 ug/disk in presence of long wave UV light; format: functional, organism-based
Sporobolomyces [30] = test: Phototoxicity against Sporobolomyces sp. Y138 at 10 ug/disk in presence of cool-white fluorescent light; format: functional, organism-based
Sporobolomyces [31] = test: Phototoxicity against Sporobolomyces sp. Y138 at 10 ug/disk in dark; format: functional, organism-based
Torula [32] = test: Phototoxicity against Torula sp. at 10 ug/disk in presence of long wave UV light; format: functional, organism-based
Torula [33] = test: Phototoxicity against Torula sp. at 10 ug/disk in dark; format: functional, organism-based
Fusarium sp. [34] = test: Phototoxicity against Fusarium sp. at 10 ug/disk in presence of long wave UV light; format: functional, organism-based
Fusarium sp. [35] = test: Phototoxicity against Fusarium sp. at 10 ug/disk in presence of cool-white fluorescent light; format: functional, organism-based
Fusarium sp. [36] = test: Phototoxicity against Fusarium sp. at 10 ug/disk in dark; format: functional, organism-based
Microsporum canis [37] = test: Phototoxicity against Microsporum canis at 10 ug/disk in presence of long wave UV light; format: functional, organism-based
Microsporum canis [38] = test: Phototoxicity against Microsporum canis at 10 ug/disk in presence of cool-white fluorescent light; format: functional, organism-based
Microsporum canis [39] = test: Phototoxicity against Microsporum canis at 10 ug/disk in dark; format: functional, organism-based
Paraphyton cookei [40] = test: Phototoxicity against Microsporum cookei at 10 ug/disk in presence of long wave UV light; format: functional, organism-based
Paraphyton cookei [41] = test: Phototoxicity against Microsporum cookei at 10 ug/disk in presence of cool-white fluorescent light; format: functional, organism-based
Paraphyton cookei [42] = test: Phototoxicity against Microsporum cookei at 10 ug/disk in dark; format: functional, organism-based
Nannizzia gypsea [43] = test: Phototoxicity against Microsporum gypseum at 10 ug/disk in presence of long wave UV light; format: functional, organism-based
Nannizzia gypsea [44] = test: Phototoxicity against Microsporum gypseum at 10 ug/disk in presence of cool-white fluorescent light; format: functional, organism-based
Nannizzia gypsea [45] = test: Phototoxicity against Microsporum gypseum at 10 ug/disk in dark; format: functional, organism-based
[46] = system: Trichophyton mentagrophytes; test: Phototoxicity against Trichophyton mentagrophytes at 10 ug/disk in presence of long wave UV light; format: functional, organism-based
[47] = system: Trichophyton mentagrophytes; test: Phototoxicity against Trichophyton mentagrophytes at 10 ug/disk in presence of cool-white fluorescent light; format: functional, organism-based
[48] = system: Trichophyton mentagrophytes; test: Phototoxicity against Trichophyton mentagrophytes at 10 ug/disk in dark; format: functional, organism-based
Candida albicans [49] = test: Phototoxicity against Candida albicans at 5 ug/disk after UV irradiation for 15 mins; format: functional; details: light or radiation study, 0.25 h, read-out: IZ
Candida albicans [50] = test: Phototoxicity against Candida albicans at 5 ug/disk after UV irradiation for 30 mins; format: functional; details: light or radiation study, 0.5 h, read-out: IZ
Candida albicans [51] = test: Phototoxicity against Candida albicans at 5 ug/disk after UV irradiation for 180 mins; format: functional; details: light or radiation study, 3 h, read-out: IZ
Saccharomyces cerevisiae [52] = test: Phototoxicity against Saccharomyces cerevisiae at 5 ug/disk after UV irradiation for 15 mins; format: functional; details: light or radiation study, 0.25 h, read-out: IZ
Saccharomyces cerevisiae [53] = test: Phototoxicity against Saccharomyces cerevisiae at 5 ug/disk after UV irradiation for 30 mins; format: functional; details: light or radiation study, 0.5 h, read-out: IZ
Saccharomyces cerevisiae [54] = test: Phototoxicity against Saccharomyces cerevisiae at 5 ug/disk after UV irradiation for 180 mins; format: functional; details: light or radiation study, 3 h, read-out: IZ
DNA [55] = test: Photochemical activity against denatured calf thymus DNA at 10 ug by hyperchromicity test; format: nucleic-acid assay; details: Bos taurus
DNA [56] = test: Photochemical activity against denatured calf thymus DNA 10 ug after UV irradiation with 2.67 Joules/cm'2 for 30 mins at by hyperchromicity test; format: nucleic-acid assay; details: Bos taurus
DNA [57] = test: Photochemical activity against denatured calf thymus DNA at 10 ug after UV irradiation with 5.33 Joules/cm'2 for 60 mins by hyperchromicity test; format: nucleic-acid assay; details: Bos taurus
DNA [58] = test: Photochemical activity against denatured calf thymus DNA at 10 ug after UV irradiation with 10.67 Joules/cm'2 for 120 mins by hyperchromicity test; format: nucleic-acid assay; details: Bos taurus; further: unit not given here
DNA [59] = test: Photochemical activity against denatured calf thymus DNA at 10 ug after UV irradiation with 16.00 Joules/cm'2 for 180 mins by hyperchromicity test; format: nucleic-acid assay; details: Bos taurus
DNA [60] = test: Photochemical activity against denatured calf thymus DNA at 10 ug in dark by hyperchromicity test; format: nucleic-acid assay; details: Bos taurus; further: unit not given here
DNA [61] = test: Photochemical activity against denatured calf thymus DNA at 10 ug in dark after 30 mins by hyperchromicity test; format: nucleic-acid assay; details: Bos taurus
DNA [62] = test: Photochemical activity against denatured calf thymus DNA at 10 ug in dark after 60 mins by hyperchromicity test; format: nucleic-acid assay; details: Bos taurus; further: unit not given here
DNA [63] = test: Photochemical activity against denatured calf thymus DNA at in dark after 120 mins by hyperchromicity test; format: nucleic-acid assay; details: Bos taurus; further: unit not given here
DNA [64] = test: Photochemical activity against denatured calf thymus DNA at in dark after 180 mins by hyperchromicity test; format: nucleic-acid assay; details: Bos taurus

COc1c2occc2cc2ccc(=O)oc12 [METHOXSALEN]
20 mm: zone of inhibition at 5 µg/disc (Saccharomyces cerevisiae [54])
17 mm: zone of inhibition at 5 µg/disc (Candida albicans [51]) | zone of inhibition at 5 µg/disc (Saccharomyces cerevisiae [52])
0.18: Activity (DNA [55]) | Activity (DNA [56]) | Activity (DNA [57]) | Activity (DNA [59])
18 mm: zone of inhibition at 5 µg/disc (Saccharomyces cerevisiae [53])
active: Activity (Bacillus subtilis [1]) | Activity (Kocuria rosea [3]) | Activity [6] | Activity [7] | Activity (Enterococcus faecalis [9]) | Activity (Escherichia coli [12]) | Activity (Proteus mirabilis [15]) | Activity (Candida albicans [21]) | Activity (Candida albicans [22]) | Activity (Rhodotorula mucilaginosa [24]) | Activity (Saccharomyces cerevisiae [26]) | Activity (Saccharomyces cerevisiae [27]) | Activity (Sporobolomyces [29]) | Activity (Sporobolomyces [30]) | Activity (Torula [32]) | Activity (Fusarium sp. [34]) | Activity (Microsporum canis [37]) | Activity (Microsporum canis [38]) | Activity (Paraphyton cookei [40]) | Activity (Paraphyton cookei [41]) | Activity (Nannizzia gypsea [43]) | Activity (Nannizzia gypsea [44]) | Activity [46]
inactive: Activity (Bacillus subtilis [2]) | Activity (Kocuria rosea [4]) | Activity (Kocuria rosea [5]) | Activity [8] | Activity (Enterococcus faecalis [10]) | Activity (Enterococcus faecalis [11]) | Activity (Escherichia coli [13]) | Activity (Escherichia coli [14]) | Activity (Proteus mirabilis [16]) | Activity (Proteus mirabilis [17]) | Activity (Pseudomonas fluorescens [18]) | Activity (Pseudomonas fluorescens [19]) | Activity (Pseudomonas fluorescens [20]) | Activity (Candida albicans [23]) | Activity (Rhodotorula mucilaginosa [25]) | Activity (Saccharomyces cerevisiae [28]) | Activity (Sporobolomyces [31]) | Activity (Torula [33]) | Activity (Fusarium sp. [35]) | Activity (Fusarium sp. [36]) | Activity (Microsporum canis [39]) | Activity (Paraphyton cookei [42]) | Activity (Nannizzia gypsea [45]) | Activity [47] | Activity [48]
15 mm: zone of inhibition at 5 µg/disc (Candida albicans [50])
0.17: Activity (DNA [58]) | Activity (DNA [60]) | Activity (DNA [61]) | Activity (DNA [62]) | Activity (DNA [63]) | Activity (DNA [64])
13 mm: zone of inhibition at 5 µg/disc (Candida albicans [49])
